In patent publication US20210220370A1, “SELECTIVE HDAC8 INHIBITORS AND THEIR USES” (HOCHSCHULE DARMSTADT, priority 2015, published 2021):

The compounds below were run against HDAC1 (Homo sapiens, UniProt Q13547) (assay: HDAC1 colorimetric assay, substrate Boc-Lys(Ac)-AMC). Conditions: IC50 HDAC1, Table 1.
HDAC1, sequence (Q13547 whole entry): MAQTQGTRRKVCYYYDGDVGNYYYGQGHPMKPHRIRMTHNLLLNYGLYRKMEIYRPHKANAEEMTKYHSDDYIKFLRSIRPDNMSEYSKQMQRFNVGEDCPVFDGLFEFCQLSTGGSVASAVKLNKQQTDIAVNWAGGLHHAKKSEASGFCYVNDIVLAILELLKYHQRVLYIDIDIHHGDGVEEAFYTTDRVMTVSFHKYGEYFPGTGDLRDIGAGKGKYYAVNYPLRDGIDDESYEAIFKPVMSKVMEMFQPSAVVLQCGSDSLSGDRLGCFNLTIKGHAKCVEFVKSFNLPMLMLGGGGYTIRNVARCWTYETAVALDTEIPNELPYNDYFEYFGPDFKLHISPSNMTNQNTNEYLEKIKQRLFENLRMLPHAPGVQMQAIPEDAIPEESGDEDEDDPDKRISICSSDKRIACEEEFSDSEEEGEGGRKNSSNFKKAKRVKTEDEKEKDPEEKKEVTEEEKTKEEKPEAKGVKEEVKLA
Experimental: 1 nM of HDAC1 was incubated with increasing concentrations of the respective compound for 30 minutes at 30° C. The reaction was initiated by addition of 50 μM of the substrate Boc-Lys(Ac)-AMC. After an incubation of 60 minutes the reaction was stopped by addition of 20 μM SAHA and the deacetylated substrate was converted into a fluorescent product by the addition of trypsin.

SMILES	IC50
Cc1ccc2c(c1)SC(=N)N1CCCN=C21 [Compound 13k, 9-Methyl-3,4-Dihydrobenzo[e]Pyrimido[1,2-c][1,3]Thiazin-6(2H)-Imine]	5.8 ± 0.3 µM
N=C1Sc2ccccc2C2=NCCCN12 [Compound 13a, 3,4-Dihydrobenzo[e]Pyrimido[1,2-c][1,3]Thiazin-6(2H)-Imine]	3.6 ± 0.8 µM

Same assay, conditions: IC50 for HDAC1, FIG. 3; 50 μM Boc-Lys(Ac)-AMC

SMILES	IC50
N=C1Sc2ccccc2C2=NCCCN12 [Compound P2742, 6H-6-Imino-(2,3,4,5-tetrahydropyrimido)[1,2-c]-[1,3]benzothiazine, reference compound]	3 µM

The compounds below were run on uterine leiomyosarcoma cell line SKUT-1 (assay: Growth inhibition of cancer cell line, resazurin assay). Conditions: Homo sapiens, SK-UT-1; Table 2, resazurin assay.
Format: cell-based, Human

SMILES	GI50
Cc1ccc2c(c1)SC(=N)N1CCCN=C21 [Compound 13k, 9-Methyl-3,4-Dihydrobenzo[e]Pyrimido[1,2-c][1,3]Thiazin-6(2H)-Imine]	45 ± 16 µM
N=C1Sc2ccccc2C2=NCCCN12 [Compound 13a, 3,4-Dihydrobenzo[e]Pyrimido[1,2-c][1,3]Thiazin-6(2H)-Imine]	736 ± 659 µM

These compounds were tested against HDAC3 (Homo sapiens, UniProt O15379) (assay: HDAC3 colorimetric assay, substrate Boc-Lys(Ac)-AMC). Conditions: Table 1.
Format: biochemical

HDAC3, sequence (O15379 whole entry): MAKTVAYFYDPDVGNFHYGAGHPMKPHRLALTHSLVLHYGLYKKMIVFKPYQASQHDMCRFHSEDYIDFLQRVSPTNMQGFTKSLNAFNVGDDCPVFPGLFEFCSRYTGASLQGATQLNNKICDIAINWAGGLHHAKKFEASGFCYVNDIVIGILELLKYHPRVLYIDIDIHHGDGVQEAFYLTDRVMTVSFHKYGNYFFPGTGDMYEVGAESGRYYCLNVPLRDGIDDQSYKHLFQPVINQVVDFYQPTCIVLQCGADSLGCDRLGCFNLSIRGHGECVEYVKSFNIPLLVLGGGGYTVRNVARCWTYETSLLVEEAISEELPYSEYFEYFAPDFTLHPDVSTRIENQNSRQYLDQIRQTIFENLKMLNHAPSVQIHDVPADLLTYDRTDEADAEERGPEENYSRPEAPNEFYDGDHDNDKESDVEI
HDAC3, sequence (Q9Y618 395-489 partner limits assumed): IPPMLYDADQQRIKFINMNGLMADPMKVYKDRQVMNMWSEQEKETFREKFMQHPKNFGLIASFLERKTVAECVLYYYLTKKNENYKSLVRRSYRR

IC50	SMILES
26 ± 4 µM	Cc1ccc2c(c1)SC(=N)N1CCCN=C21 [Compound 13k, 9-Methyl-3,4-Dihydrobenzo[e]Pyrimido[1,2-c][1,3]Thiazin-6(2H)-Imine]

Each compound was assayed against T1, HDAC6 (Homo sapiens, UniProt Q9UBN7) (assay: HDAC6 colorimetric assay, substrate Boc-Lys(Ac)-AMC). Conditions: not given.
T1 sequence (Q9UBN7 1-1215): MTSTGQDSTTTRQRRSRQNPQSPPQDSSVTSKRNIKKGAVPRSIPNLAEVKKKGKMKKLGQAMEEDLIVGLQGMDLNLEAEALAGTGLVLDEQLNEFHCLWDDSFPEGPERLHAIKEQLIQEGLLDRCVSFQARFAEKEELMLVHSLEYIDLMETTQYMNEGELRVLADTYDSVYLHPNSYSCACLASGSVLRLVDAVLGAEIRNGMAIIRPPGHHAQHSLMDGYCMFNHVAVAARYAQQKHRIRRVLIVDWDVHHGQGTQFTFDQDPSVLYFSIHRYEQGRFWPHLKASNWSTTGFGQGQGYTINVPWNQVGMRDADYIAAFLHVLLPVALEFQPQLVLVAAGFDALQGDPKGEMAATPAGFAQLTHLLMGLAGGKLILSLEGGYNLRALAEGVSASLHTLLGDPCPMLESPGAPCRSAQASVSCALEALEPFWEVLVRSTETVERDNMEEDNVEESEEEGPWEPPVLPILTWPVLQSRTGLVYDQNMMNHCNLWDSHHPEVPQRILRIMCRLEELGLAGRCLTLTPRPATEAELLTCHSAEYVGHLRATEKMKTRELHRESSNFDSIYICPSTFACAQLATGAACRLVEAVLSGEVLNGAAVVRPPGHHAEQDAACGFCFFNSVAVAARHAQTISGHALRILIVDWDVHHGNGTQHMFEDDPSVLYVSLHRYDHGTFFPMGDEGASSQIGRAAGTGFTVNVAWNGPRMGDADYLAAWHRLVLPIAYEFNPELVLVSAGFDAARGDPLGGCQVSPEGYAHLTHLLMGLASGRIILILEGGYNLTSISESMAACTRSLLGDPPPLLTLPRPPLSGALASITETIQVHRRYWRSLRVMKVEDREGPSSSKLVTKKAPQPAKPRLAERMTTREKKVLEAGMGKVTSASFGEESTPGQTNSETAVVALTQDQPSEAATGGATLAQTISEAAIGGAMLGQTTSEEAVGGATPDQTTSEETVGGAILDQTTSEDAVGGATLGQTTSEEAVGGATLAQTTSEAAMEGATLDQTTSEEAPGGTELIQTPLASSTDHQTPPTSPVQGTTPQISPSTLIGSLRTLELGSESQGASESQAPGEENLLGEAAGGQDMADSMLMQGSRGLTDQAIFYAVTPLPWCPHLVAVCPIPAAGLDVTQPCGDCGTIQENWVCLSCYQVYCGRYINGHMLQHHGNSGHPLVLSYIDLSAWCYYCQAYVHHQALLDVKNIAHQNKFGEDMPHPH
Format: biochemical

SMILES	IC50
N=C1Sc2ccccc2C2=NCCCN12 [Compound 13a, 3,4-Dihydrobenzo[e]Pyrimido[1,2-c][1,3]Thiazin-6(2H)-Imine]	6.7 ± 0.8 µM

Same assay, conditions: Table 1; read-out: IC50 HDAC6

IC50	SMILES
1.3 ± 0.3 µM	Cc1ccc2c(c1)SC(=N)N1CCCN=C21 [Compound 13k, 9-Methyl-3,4-Dihydrobenzo[e]Pyrimido[1,2-c][1,3]Thiazin-6(2H)-Imine]

These compounds were tested on T cell leukemia cell line JURKAT (assay: Growth inhibition of cancer cell line, resazurin assay). Conditions: not given.

SMILES	GI against JURKAT cells
N=C1Sc2ccccc2C2=NCCCN12 [Compound 13a, 3,4-Dihydrobenzo[e]Pyrimido[1,2-c][1,3]Thiazin-6(2H)-Imine]	63 µM

Same assay, conditions: Homo sapiens, Jurkat, read-out: GI50 JURKAT

SMILES	GI50
Cc1ccc2c(c1)SC(=N)N1CCCN=C21 [Compound 13k, 9-Methyl-3,4-Dihydrobenzo[e]Pyrimido[1,2-c][1,3]Thiazin-6(2H)-Imine]	36 ± 4 µM
N=C1Sc2ccccc2C2=NCCCN12 [Compound 13a, 3,4-Dihydrobenzo[e]Pyrimido[1,2-c][1,3]Thiazin-6(2H)-Imine]	63 ± 8 µM

Same assay, conditions: ratio of JURKAT value to HDAC8 IC50

SMILES	times less active against JURKAT cells than on the isolated HDAC8 enzyme
N=C1Sc2ccccc2C2=NCCCN12 [Compound 13a, 3,4-Dihydrobenzo[e]Pyrimido[1,2-c][1,3]Thiazin-6(2H)-Imine]	more than 5700

These compounds were tested against HDAC4 (Homo sapiens, UniProt P56524) (assay: not given). Conditions: Table 1.
Format: biochemical

HDAC4, sequence (P56524 whole entry): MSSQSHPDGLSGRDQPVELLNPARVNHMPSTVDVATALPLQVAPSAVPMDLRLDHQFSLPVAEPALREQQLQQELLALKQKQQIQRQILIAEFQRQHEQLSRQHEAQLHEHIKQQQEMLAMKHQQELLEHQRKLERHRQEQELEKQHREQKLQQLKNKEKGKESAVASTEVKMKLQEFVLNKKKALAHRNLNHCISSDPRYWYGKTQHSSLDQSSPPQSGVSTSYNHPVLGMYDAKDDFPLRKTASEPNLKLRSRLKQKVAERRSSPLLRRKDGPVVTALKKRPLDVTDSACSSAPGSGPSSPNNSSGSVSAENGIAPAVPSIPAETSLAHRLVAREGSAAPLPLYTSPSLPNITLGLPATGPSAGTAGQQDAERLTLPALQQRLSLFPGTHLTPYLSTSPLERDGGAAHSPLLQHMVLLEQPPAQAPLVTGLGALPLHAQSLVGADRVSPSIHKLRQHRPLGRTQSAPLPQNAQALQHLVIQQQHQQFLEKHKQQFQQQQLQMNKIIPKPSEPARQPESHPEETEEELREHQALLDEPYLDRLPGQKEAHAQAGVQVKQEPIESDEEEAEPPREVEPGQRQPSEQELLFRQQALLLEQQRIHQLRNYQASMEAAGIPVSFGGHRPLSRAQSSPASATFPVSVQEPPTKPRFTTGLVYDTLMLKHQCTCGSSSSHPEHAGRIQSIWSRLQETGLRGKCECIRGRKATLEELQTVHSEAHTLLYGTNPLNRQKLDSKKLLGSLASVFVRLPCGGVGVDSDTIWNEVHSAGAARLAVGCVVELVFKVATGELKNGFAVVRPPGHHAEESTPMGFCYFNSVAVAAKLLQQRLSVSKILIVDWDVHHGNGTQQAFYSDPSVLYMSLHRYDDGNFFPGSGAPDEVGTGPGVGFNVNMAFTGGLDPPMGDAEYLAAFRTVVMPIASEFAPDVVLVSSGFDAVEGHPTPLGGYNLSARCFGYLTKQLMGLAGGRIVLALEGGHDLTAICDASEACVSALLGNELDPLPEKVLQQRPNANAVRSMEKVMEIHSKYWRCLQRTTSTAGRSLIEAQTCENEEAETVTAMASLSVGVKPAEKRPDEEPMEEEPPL

IC50	SMILES
7.6 ± 0.8 µM	Cc1ccc2c(c1)SC(=N)N1CCCN=C21 [Compound 13k, 9-Methyl-3,4-Dihydrobenzo[e]Pyrimido[1,2-c][1,3]Thiazin-6(2H)-Imine]

What follows are compounds tested against T2, HDAC7 (Homo sapiens, UniProt Q8WUI4) (assay: HDAC7 colorimetric assay, substrate Boc-Lys(TFA)-AMC). Conditions: not given.
T2 sequence (Q8WUI4 1-952): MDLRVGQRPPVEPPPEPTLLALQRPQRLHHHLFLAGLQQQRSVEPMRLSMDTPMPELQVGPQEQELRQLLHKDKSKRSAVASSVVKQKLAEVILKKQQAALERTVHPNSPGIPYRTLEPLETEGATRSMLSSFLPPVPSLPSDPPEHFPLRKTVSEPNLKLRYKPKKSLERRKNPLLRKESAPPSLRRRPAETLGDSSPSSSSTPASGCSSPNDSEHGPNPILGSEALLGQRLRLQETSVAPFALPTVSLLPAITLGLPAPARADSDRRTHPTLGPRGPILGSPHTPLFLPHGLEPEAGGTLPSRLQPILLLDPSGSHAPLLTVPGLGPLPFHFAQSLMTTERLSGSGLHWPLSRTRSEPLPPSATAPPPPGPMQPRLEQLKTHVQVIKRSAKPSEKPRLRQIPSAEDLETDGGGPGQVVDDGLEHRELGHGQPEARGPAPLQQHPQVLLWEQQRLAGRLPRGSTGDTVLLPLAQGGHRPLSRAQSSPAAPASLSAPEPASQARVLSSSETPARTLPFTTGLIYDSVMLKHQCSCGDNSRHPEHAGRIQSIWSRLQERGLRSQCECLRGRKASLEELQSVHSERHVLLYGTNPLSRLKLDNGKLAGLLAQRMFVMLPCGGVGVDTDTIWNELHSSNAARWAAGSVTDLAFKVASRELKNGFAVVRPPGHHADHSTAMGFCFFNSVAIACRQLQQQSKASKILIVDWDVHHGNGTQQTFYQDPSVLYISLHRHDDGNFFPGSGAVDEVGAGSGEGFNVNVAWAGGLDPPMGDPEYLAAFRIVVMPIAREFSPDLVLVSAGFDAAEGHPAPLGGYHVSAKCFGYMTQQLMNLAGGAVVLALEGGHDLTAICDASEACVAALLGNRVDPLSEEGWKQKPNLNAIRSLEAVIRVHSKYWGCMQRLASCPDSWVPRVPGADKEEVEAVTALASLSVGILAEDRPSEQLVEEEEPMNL

SMILES	IC50
N=C1Sc2ccccc2C2=NCCCN12 [Compound P2742, 6H-6-Imino-(2,3,4,5-tetrahydropyrimido)[1,2-c]-[1,3]benzothiazine, reference compound]	0.24 µM

Same assay, conditions: IC50 HDAC7, Table 1

IC50	SMILES
2.5 ± 0.1 µM	Cc1ccc2c(c1)SC(=N)N1CCCN=C21 [Compound 13k, 9-Methyl-3,4-Dihydrobenzo[e]Pyrimido[1,2-c][1,3]Thiazin-6(2H)-Imine]

Same assay, conditions: read-out: IC50 HDAC7; Table 1

SMILES	IC50
N=C1Sc2ccccc2C2=NCCCN12 [Compound 13a, 3,4-Dihydrobenzo[e]Pyrimido[1,2-c][1,3]Thiazin-6(2H)-Imine]	0.22 ± 0.02 µM

What follows are compounds tested on breast cancer cell line MCF-7 (assay: Growth inhibition of cancer cell line, resazurin assay). Conditions: Homo sapiens, MCF7; Table 2, resazurin assay.
Format: cell-based, Human

SMILES	GI50
Cc1ccc2c(c1)SC(=N)N1CCCN=C21 [Compound 13k, 9-Methyl-3,4-Dihydrobenzo[e]Pyrimido[1,2-c][1,3]Thiazin-6(2H)-Imine]	44 ± 12 µM
N=C1Sc2ccccc2C2=NCCCN12 [Compound 13a, 3,4-Dihydrobenzo[e]Pyrimido[1,2-c][1,3]Thiazin-6(2H)-Imine]	> 1000 µM

What follows are compounds tested against HDAC2 (Homo sapiens, UniProt Q92769) (assay: HDAC2 colorimetric assay, substrate Boc-Lys(Ac)-AMC). Conditions: not given.
Format: biochemical

HDAC2, sequence (Q92769 whole entry): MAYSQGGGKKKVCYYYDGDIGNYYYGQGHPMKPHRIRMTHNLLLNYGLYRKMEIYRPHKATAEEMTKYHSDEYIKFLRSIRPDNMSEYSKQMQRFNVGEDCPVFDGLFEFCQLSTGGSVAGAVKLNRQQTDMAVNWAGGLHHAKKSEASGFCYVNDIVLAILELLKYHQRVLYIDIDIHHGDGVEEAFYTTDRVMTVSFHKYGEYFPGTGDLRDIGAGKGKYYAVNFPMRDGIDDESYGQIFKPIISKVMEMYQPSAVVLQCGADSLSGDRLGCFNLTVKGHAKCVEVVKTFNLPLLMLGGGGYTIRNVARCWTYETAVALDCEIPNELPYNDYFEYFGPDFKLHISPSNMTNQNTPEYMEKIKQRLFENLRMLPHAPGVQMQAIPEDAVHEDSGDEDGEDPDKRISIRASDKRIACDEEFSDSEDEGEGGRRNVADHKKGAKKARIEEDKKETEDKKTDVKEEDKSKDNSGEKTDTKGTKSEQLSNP

SMILES	IC50
N=C1Sc2ccccc2C2=NCCCN12 [Compound 13a, 3,4-Dihydrobenzo[e]Pyrimido[1,2-c][1,3]Thiazin-6(2H)-Imine]	32 ± 1.5 µM

Same assay, conditions: Table 1

IC50	SMILES
> 50 µM	Cc1ccc2c(c1)SC(=N)N1CCCN=C21 [Compound 13k, 9-Methyl-3,4-Dihydrobenzo[e]Pyrimido[1,2-c][1,3]Thiazin-6(2H)-Imine]

Each compound was assayed against HDAC5 (Homo sapiens, UniProt Q9UQL6) (assay: HDAC5 colorimetric assay, substrate Boc-Lys(TFA)-AMC). Conditions: not given.
HDAC5, sequence (Q9UQL6 whole entry): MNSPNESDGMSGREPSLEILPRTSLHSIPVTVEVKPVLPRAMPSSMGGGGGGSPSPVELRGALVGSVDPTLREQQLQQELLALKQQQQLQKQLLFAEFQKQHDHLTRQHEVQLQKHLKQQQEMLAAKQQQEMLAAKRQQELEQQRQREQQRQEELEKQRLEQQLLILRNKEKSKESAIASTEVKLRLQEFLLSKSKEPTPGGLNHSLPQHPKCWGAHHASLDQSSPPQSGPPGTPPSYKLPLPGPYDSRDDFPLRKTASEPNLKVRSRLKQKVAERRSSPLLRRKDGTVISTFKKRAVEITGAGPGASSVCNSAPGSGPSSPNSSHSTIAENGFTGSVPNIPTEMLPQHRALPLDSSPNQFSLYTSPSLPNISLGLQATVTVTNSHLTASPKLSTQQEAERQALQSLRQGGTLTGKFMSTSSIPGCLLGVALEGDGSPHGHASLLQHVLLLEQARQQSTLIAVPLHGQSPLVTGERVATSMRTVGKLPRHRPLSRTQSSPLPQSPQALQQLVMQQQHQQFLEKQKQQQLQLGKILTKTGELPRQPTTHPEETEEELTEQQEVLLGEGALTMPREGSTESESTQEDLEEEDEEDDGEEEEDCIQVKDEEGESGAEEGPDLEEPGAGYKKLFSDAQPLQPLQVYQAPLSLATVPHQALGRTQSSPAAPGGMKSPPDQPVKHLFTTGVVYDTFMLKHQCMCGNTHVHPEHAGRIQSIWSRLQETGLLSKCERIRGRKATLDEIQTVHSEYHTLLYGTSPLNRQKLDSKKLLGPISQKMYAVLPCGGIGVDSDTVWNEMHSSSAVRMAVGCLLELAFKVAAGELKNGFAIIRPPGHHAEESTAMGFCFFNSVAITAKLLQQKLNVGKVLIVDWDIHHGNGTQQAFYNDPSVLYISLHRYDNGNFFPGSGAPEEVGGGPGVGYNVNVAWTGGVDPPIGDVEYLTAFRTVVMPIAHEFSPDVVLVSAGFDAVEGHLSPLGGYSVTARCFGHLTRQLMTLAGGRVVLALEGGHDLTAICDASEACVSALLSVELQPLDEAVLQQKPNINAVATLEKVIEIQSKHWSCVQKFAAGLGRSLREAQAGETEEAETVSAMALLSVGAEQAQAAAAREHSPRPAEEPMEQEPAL

IC50	SMILES
0.24 ± 0.01 µM	Cc1ccc2c(c1)SC(=N)N1CCCN=C21 [Compound 13k, 9-Methyl-3,4-Dihydrobenzo[e]Pyrimido[1,2-c][1,3]Thiazin-6(2H)-Imine]

Same assay, conditions: read-out: IC50 HDAC5; Table 1

SMILES	IC50
N=C1Sc2ccccc2C2=NCCCN12 [Compound 13a, 3,4-Dihydrobenzo[e]Pyrimido[1,2-c][1,3]Thiazin-6(2H)-Imine]	0.11 ± 0.01 µM

Same assay, conditions: read-out: IC50 for HDAC5; FIG. 3; 20 μM Boc-Lys(TFA)-AMC

SMILES	IC50
N=C1Sc2ccccc2C2=NCCCN12 [Compound P2742, 6H-6-Imino-(2,3,4,5-tetrahydropyrimido)[1,2-c]-[1,3]benzothiazine, reference compound]	0.11 µM

These compounds were tested against T3, HDAC8 (Homo sapiens, UniProt Q9BY41) (assay: HDAC8 colorimetric assay, substrate Boc-Lys(TFA)-AMC). Conditions: IC50 HDAC8, Table 1.
T3 sequence (Q9BY41 1-377): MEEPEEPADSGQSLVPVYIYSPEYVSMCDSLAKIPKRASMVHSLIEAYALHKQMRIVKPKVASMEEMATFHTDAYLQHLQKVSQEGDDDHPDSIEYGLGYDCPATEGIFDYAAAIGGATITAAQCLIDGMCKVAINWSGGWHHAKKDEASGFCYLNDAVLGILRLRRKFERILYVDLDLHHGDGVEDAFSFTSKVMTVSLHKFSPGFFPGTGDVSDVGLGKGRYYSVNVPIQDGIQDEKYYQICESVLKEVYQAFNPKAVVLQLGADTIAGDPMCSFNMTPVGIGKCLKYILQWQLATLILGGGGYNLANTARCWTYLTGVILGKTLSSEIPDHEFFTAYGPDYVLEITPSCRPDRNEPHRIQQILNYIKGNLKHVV
Experimental: 1 nM of HDAC4 was incubated with increasing concentrations of the respective compound for 30 minutes at 30° C. The reaction was initiated by addition of 20 μM of the substrate Boc-Lys(trifluoracetyl)-AMC. After an incubation of 60 minutes the reaction was stopped by addition of 20 μM SAHA and the deacetylated substrate was converted into a fluorescent product by the addition of trypsin.

IC50	SMILES
0.0054 ± 0.0004 µM	Cc1ccc2c(c1)SC(=N)N1CCCN=C21 [Compound 13k, 9-Methyl-3,4-Dihydrobenzo[e]Pyrimido[1,2-c][1,3]Thiazin-6(2H)-Imine]
